# Assay: Oral absorbability in rats: overall coenzyme Q10 concentration in plasma by HPLC after oral administration (AUC)
# Parameters: species or system Spregue-Dawley rats
# Conditions: rat, in vivo, 57.8 umol/kg
# Method: (§1) To seven-weeks old male Spregue-Dawley rats (obtained from Japan SLC, Inc.) were orally administered the derivatives of reduced coenzyme Q10 obtained in Examples 3, 4 and 5 and the starting reduced coenzyme Q10 as control each in 57.8 μmol/kg (50 mg/kg in terms of reduced coenzyme Q10). Blood was extracted from each rat after 1, 2, 4, 8 and 24 hours after administration of each sample. Each extracted blood was centrifuged, so that plasma was obtained. Then, oxidation treatment of reduced coenzyme Q10 in the plasma and extraction treatment of oxidized coenzyme Q10 were performed, and then the overall coenzyme Q10 concentration in the plasma was measured as oxidized coenzyme Q10 by using HPLC.
# as §1, with “derivative” for “derivatives”, “Referential Example 1” for “Examples 3, 4 and 5”
smiles,measurement,value
"COc1c(OC(C)=O)c(C)c(CC=C(C)CCC=C(C)CCC=C(C)CCC=C(C)CCC=C(C)CCC=C(C)CCC=C(C)CCC=C(C)CCC=C(C)CCC=C(C)C)c(OC(C)=O)c1OC [Bisacetyl derivative, Bisacetyl Derivative]","AUC (area under the blood concentration-time curve) as compared with reduced coenzyme Q10, in words",lower
